The record followed here is patent publication US6143492A, “Optical molecular sensors for cytochrome P450 activity” (Aurora Biosciences Corporation, priority 1999, dated 2000).

A value given as a limit tells only on which side of the number the result lay.

The target of series [1] is CYP 2D6 (Homo sapiens, UniProt P10635). Briefly: biochemical. The method, then:
CYP 2D6 was incubated with 10 μM concentrations of various known inhibitors and drug substrates and residual CYP 2D6 activity assayed with the fluorogenic substrate MOBFC. The assay was performed in a 96-well plate at room temp and at a volume of 100 μl/well. 4×enzyme buffer was prepared and 25 μl was added to each well on the plate, for final assay concentrations of 3.3 mM glucose-6-phosphate, 0.4 units/ml glucose-6-phosphate dehydrogenase and 10 mM MgCl2 in 100 mM K+ phosphate, pH 8.0. […] Six consecutive 1:3 dilutions were made and 50 μl of each was added to appropriate wells on the assay plate. The CYP2D6 was diluted to a solution of 2 pmol/10 μl in 100 mM K+ phosphate and 10 μl was added to each well. 20 μl of buffer was added to each well containing standard. The drug inhibitors were allowed to pre-incubated with the CYP 2D6 enzyme for 1 hr prior to the addition of the MOBFC substrate. […] Hydroxy-trifluoro-methylcoumarin was diluted to 100 μM in K+ phosphate buffer, and seven consecutive 1:2 dilutions were made. 10 μl of each dilution was added to the appropriate wells on the plate containing 90 μl of 100 mM K+ phosphate, pH 8.0.

The target in series [2] is T1, CYP 3A4 (Homo sapiens, UniProt P08684).
T1 construct: NADPH regenerating system
Kind of series: Kinetics of fluorogenic substrates with CYP 3A4. In kind it is biochemical. The text has this: Whichever of the four abstractable hydrogen atoms (designated H^1 and H^2 in this representation of BOMR) is removed in the initial reaction step, with reference to Reaction Scheme 1 of FIG. 1, the hydroxylation product will spontaneously decompose to the free resorufin dye. In addition, the benzyloxy group, attached to the carbon carrying the two hydrogens designated H^2, contributes an inductive electronic effect on that carbon, which can stabilize the radical formed during abstraction of one of the H^2 hydrogens by a cytochrome P450.
Optimization of assay conditions was, and is preferably, accomplished through statistically validated Design of Experiments methodologies, using the commercial software package "Design-Expert®" produced by Stat-Ease® Inc. The data shown in FIGS. 4 and 5 were obtained with initial optimization.
For further understanding these terms in the context of this invention, attention is directed to FIG. 4 and the analysis of FIG. 4.

The target in series [3] is T2, CYP 2B6 (Homo sapiens, UniProt P20813).
T2 sequence (P20813 1-491): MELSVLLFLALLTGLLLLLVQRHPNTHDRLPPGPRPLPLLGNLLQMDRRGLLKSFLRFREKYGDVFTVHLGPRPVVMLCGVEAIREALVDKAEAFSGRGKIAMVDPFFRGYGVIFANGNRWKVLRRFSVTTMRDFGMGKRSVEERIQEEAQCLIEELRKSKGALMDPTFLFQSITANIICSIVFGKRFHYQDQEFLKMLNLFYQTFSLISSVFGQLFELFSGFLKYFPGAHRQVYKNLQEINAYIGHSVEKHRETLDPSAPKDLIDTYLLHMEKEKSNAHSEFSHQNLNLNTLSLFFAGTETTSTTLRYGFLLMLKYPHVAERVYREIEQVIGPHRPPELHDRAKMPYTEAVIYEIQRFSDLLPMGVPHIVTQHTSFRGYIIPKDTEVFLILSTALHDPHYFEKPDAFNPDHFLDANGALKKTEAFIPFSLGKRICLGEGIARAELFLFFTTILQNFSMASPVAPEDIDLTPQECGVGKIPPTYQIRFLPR
Kind of series: Kinetics of fluorogenic substrates with CYP 2B6. Conditions: for v (1.25 uM), turnover rate at 1.25 μM: CYP 2B6, substrate 1.25 uM; for v (10 uM), turnover rate at 10 μM: CYP 2B6, substrate 10 uM.

For series [4], the target named is T1, CYP 3A4. Kind of series: Rate of hydroxylation of BOM-09B by CYP 3A4. In kind it is biochemical. The protocol:
The racemic compound mixture (designated BOM-09B) was tested for activity with cytochrome P450 isozymes. […] The CYP 3A4 assay was performed in a 96-well plate at 37° C. in a volume of 100 μL/well. BOM-09B was diluted from a stock solution of 1 mM in acetonitrile to a 4×concentration of 80 μM in 100 mM K+ phosphate buffer of which 25 μl was added to the appropriate wells. […] The cytochrome P450 isozyme CYP3A4 was diluted to give a 2 pmol enzyme per well. Enzymic conversion of the substrate to products was allowed to proceed for 1 hour with fluorescence reads taken every 4 minutes on a fluorescence microtiter plate reader. The solution was illuminated with an 395/25 nm excitation filter and fluorescence emission was detected through a 460/40 nm the emission filter.

The target of series [5] is CYP 2C9 (Homo sapiens, UniProt P11712). Kind of series: Kinetics of fluorogenic substrates with CYP 2C9. In kind it is biochemical.
Substrate in series [6]: COc1ccc2c(C(F)(F)F)cc(=O)oc2c1
Briefly: Kinetics of fluorogenic substrates with CYP 2D6. Format: biochemical, human. Particulars: other: CYP 2D6.

Substrate in series [7]: N#Cc1cc2ccc(OCOCc3ccccc3)cc2oc1=O
Kind of series: Kinetics of fluorogenic substrates with CYP 2C9. Format: biochemical, human. Conditions: other: CYP 2C9.

Substrate in series [8]: COCOc1ccc2c(C(F)(F)F)cc(=O)oc2c1
Kind of series: Kinetics of fluorogenic substrates with CYP 2C9. In kind it is biochemical, human. Conditions: other: CYP 2C9.

Substrate in series [9]: COc1ccc2c(C(F)(F)F)cc(=O)oc2c1
Briefly: Kinetics of fluorogenic substrates with CYP 2C9. In kind it is biochemical, human. Conditions: other: CYP 2C9.

T1 sequence (P08684 whole entry): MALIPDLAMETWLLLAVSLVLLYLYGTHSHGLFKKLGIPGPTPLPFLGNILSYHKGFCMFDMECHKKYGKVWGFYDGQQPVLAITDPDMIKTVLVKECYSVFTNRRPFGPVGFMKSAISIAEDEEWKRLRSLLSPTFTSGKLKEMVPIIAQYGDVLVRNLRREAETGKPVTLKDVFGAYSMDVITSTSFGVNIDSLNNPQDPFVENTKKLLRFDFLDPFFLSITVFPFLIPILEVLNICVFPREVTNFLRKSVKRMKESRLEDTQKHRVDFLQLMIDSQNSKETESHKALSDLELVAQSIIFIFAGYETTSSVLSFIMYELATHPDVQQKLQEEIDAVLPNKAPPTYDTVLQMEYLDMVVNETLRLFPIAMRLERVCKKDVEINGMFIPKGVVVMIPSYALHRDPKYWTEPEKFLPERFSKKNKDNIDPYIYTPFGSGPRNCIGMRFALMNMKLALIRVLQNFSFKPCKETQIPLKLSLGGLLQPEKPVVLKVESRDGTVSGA

Usually Ki stands for a measure of affinity in units of concentration, obtained from inhibition or displacement. Low readings indicate higher affinity, high ones lower affinity. In series [1], `CCC1C2CC3C4N(C)c5ccccc5C45CC(C2C5O)N3C1O` (centres unmarked) [Amjaline] displayed a Ki greater than 30 µM.

A word on the kcat: it is the maximal rate divided by the concentration of active sites. The kcat/Km is the second-order rate constant that governs catalysis at low substrate concentration. Turning to `O=c1ccc2nc3ccc(OCc4ccccc4)cc3oc-2c1` [BR, Benzylresorufin, reference compound], in series [2] (CYP 3A4), the kcat amounted to 0.0017 s⁻¹, the kcat/Km was determined as 377 M⁻¹ s⁻¹ and the type of kinetics result is recorded as “Michaelis-”. The “turnover rate (kcat)” value in [2] (CYP 3A4, FIG. 4 data) came to 0.00167 s⁻¹. For the same molecule, in series [2] (CYP 3A4, substrate 1.25 uM), the “v (1.25 uM), turnover rate at 1.25 μM” value stood at 0.02 min⁻¹. Further, the “v (10 uM), turnover rate at 10 μM” value in [2] (CYP 3A4, substrate 10 uM) worked out at 0.08 min⁻¹. The type of kinetics result in series [3] (CYP 2B6) was “not Michaelis-”. In addition, in series [3], the “v (1.25 uM), turnover rate at 1.25 μM” value turned out to be 0.42 min⁻¹ and the “v (10 uM), turnover rate at 10 μM” value came to 0.42 min⁻¹.

`NC1CCCCC1NC(=O)c1cc2ccc(OCOCc3ccccc3)cc2oc1=O` (racemic) [BOM-09B]: in series [4], the “activity with the CYP 3A4 isozyme” value is listed as “particularly high activity”. Also, the conversion rate in [4] (37° C., pH 8.0, 1 hour) is listed as 0.75 pmol substrate/pmol enzyme·min. Moreover, in series [4] (identical conditions), the “rate of conversion compared with BOMCC” value is “half that of BOMCC”.

In the case of `COCOc1ccc2c(C(F)(F)F)cc(=O)oc2c1` [MOMFC, 7-methyloxymethyloxy-4-trifluoromethylcoumarin], the results for the “conversion to the same fluorescent product vs the most closely structurally-related substrate” value in series [3] (CYP 2B6) and in [5] (CYP 2C9) were “less efficiently converted” and “more efficient conversion”, respectively. Besides, the type of kinetics result in [3] (CYP 2B6) is reported as “not Michaelis-”; in [5] (CYP 2C9) it was “Michaelis-”. Further, the “v (1.25 uM), turnover rate at 1.25 μM” value in series [3] worked out at 0.54 min⁻¹; in series [5] (CYP 2C9, substrate 1.25 uM), 0.00 min⁻¹. Also, the “v (10 uM), turnover rate at 10 μM” value in [3] came to 0.71 min⁻¹; in series [5] (CYP 2C9, substrate 10 uM), 0.07 min⁻¹. Further, the kcat in series [5] (CYP 2C9) stood at 0.0017 s⁻¹.

Consider `CC(C)NC[C@H](O)COc1cccc2ccccc12` (racemic) [Propanolol], for which the Ki in series [1] (human, cyp 2d6, pH 8) was greater than 30 µM.

B1: CYP 2D6 (Homo sapiens) (protein)
chain: MGLEALVPLAVIVAIFLLLVDLMHRRQRWAARYPPGPLPLPGLGNLLHVDFQNTPYCFDQLRRRFGDVFSLQLAWTPVVVLNGLAAVREALVTHGEDTADRPPVPITQILGFGPRSQGVFLARYGPAWREQRRFSVSTLRNLGLGKKSLEQWVTEEAACLCAAFANHSGRPFRPNGLLDKAVSNVIASLTCGRRFEYDDPRFLRLLDLAQEGLKEESGFLREVLNAVPVLLHIPALAGKVLRFQKAFLTQLDELLTEHRMTWDPAQPPRDLTEAFLAEMEKAKGNPESSFNDENLRIVVADLFSAGMVTTSTTLAWGLLLMILHPDVQRRVQQEIDDVIGQVRRPEMGDQAHMPYTTAVIHEVQRFGDIVPLGVTHMTSRDIEVQGFRIPKGTTLITNLSSVLKDEAVWEKPFRFHPEHFLDAQGHFVKPEAFLPFSAGRRACLGEPLARMELFLFFTSLLQHFSFSVPTGQPRPSHHGVFAFLVSPSPYELCAVPR
The term Km denotes the substrate concentration at which the rate is half of its maximum. As for B1, in series [6], the Km was found to be 10.0 µM and the kcat/Km stood at 417 M⁻¹ s⁻¹.

B2: CYP 2C9 (Homo sapiens) (protein)
chain: MDSLVVLVLCLSCLLLLSLWRQSSGRGKLPPGPTPLPVIGNILQIGIKDISKSLTNLSKVYGPVFTLYFGLKPIVVLHGYEAVKEALIDLGEEFSGRGIFPLAERANRGFGIVFSNGKKWKEIRRFSLMTLRNFGMGKRSIEDRVQEEARCLVEELRKTKASPCDPTFILGCAPCNVICSIIFHKRFDYKDQQFLNLMEKLNENIKILSSPWIQICNNFSPIIDYFPGTHNKLLKNVAFMKSYILEKVKEHQESMDMNNPQDFIDCFLMKMEKEKHNQPSEFTIESLENTAVDLFGAGTETTSTTLRYALLLLLKHPEVTAKVQEEIERVIGRNRSPCMQDRSHMPYTDAVVHEVQRYIDLLPTSLPHAVTCDIKFRNYLIPKGTTILISLTSVLHDNKEFPNPEMFDPHHFLDEGGNFKKSKYFMPFSAGKRICVGEALAGMELFLFLTSILQNFNLKSLVDPKNLDTTPVVNGFASVPPFYQLCFIPV
B2: in [7], the Km is 3.0 µM and the kcat/Km came out at 814 M⁻¹ s⁻¹. In series [8], the Km was found to be 14.9 µM and the kcat/Km stood at 157 M⁻¹ s⁻¹. In series [9], the Michaelis constant (Km) worked out at 103.0 µM, the catalytic constant (kcat) was 0.0067 s⁻¹ and the kcat/Km was determined as 70 M⁻¹ s⁻¹.
